Values quoted from earlier work as cited in US20150297310A1, “METHODS FOR SELECTING A TREATMENT FOR CANCER” (priority 2014, published 2015).

Tested on: AB1-HA tumor
Conditions: AB1-HA tumor model, CTX treatment at Day 9

O=P1(N(CCCl)CCCl)NCCCO1 (stereo not shown) [CTX, Cyclophosphamide]
cure rate: 75%
